# PubChem BioAssay AID1963839 (Molecular Pharmacology Branch, DTP, NCI, 2024)
# Test system: 817829-284-R-J1-PDC complex spheroid viability
# Assay: Anticancer human tumor 817829-284-R-J1-PDC patient-derived colon adenocarcinoma cell line growth inhibition [POLQ]
# Conditions: for IC50: curve of first compound; for viability, T/C: stronger effect = lower value
# Summary of the method: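 Patient-derived tumour cells were co-cultured with HUVEC and mesenchymal stem cells as multicellular spheroids at 37 °C. They were treated with POLQ inhibitors (novobiocin, ART-558, RP6685) alone or combined with other agents. Top concentrations were at or near clinical Cmax (otherwise 10 microM; SN-38 at 1 microM), decreasing in half-log steps.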
# [1] = second compound 0.0316 µM, first compound 0.00316 µM
# [2] = second compound 0.0316 µM, first compound 0.01 µM
# [3] = second compound 0.0316 µM, first compound 0.0316 µM
# [4] = second compound 0.0316 µM, first compound 0.1 µM
# [5] = second compound 0.0316 µM, first compound 0.316 µM
# [6] = second compound 0.0316 µM, first compound 1 µM
# [7] = second compound 0.1 µM, first compound 0.00316 µM
# [8] = second compound 0.1 µM, first compound 0.01 µM
# [9] = second compound 0.1 µM, first compound 0.0316 µM
# [10] = second compound 0.1 µM, first compound 0.1 µM
# [11] = second compound 0.1 µM, first compound 0.316 µM
# [12] = second compound 0.1 µM, first compound 1 µM
# [13] = second compound 0.316 µM, first compound 0.00316 µM
# [14] = second compound 0.316 µM, first compound 0.01 µM
# [15] = second compound 0.316 µM, first compound 0.0316 µM
# [16] = second compound 0.316 µM, first compound 0.1 µM
# [17] = second compound 0.316 µM, first compound 0.316 µM
# [18] = second compound 0.316 µM, first compound 1 µM
# [19] = second compound 1 µM, first compound 0.00316 µM
# [20] = second compound 1 µM, first compound 0.01 µM
# [21] = second compound 1 µM, first compound 0.0316 µM
# [22] = second compound 1 µM, first compound 0.1 µM
# [23] = second compound 1 µM, first compound 0.316 µM
# [24] = second compound 1 µM, first compound 1 µM
# [25] = second compound 3.16 µM, first compound 0.00316 µM
# [26] = second compound 3.16 µM, first compound 0.01 µM
# [27] = second compound 3.16 µM, first compound 0.0316 µM
# [28] = second compound 3.16 µM, first compound 0.1 µM
# [29] = second compound 3.16 µM, first compound 0.316 µM
# [30] = second compound 3.16 µM, first compound 1 µM
# [31] = second compound 10 µM, first compound 0.00316 µM
# [32] = second compound 10 µM, first compound 0.01 µM
# [33] = second compound 10 µM, first compound 0.0316 µM
# [34] = second compound 10 µM, first compound 0.1 µM
# [35] = second compound 10 µM, first compound 0.316 µM
# [36] = second compound 10 µM, first compound 1 µM
# 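Further: spheroids exposed to compounds for 7 days.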
# 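Wherever viability, T/C is given: 100% = DMSO vehicle-treated spheroids.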
smiles,measurement,setting,value
C=CCn1c(=O)c2cnc(Nc3ccc(N4CCN(C)CC4)cc3)nc2n1-c1cccc(C(C)(C)O)n1 + Cc1cccc(N(C)C(=O)C2C(O)CCN2c2nc(C)cc(C(F)(F)F)c2C#N)c1,IC50,second compound 0.0316 µM,155 nM
same,IC50,second compound 0.1 µM,218 nM
same,IC50,second compound 0.316 µM,259 nM
same,IC50,second compound 1 µM,236 nM
same,IC50,second compound 3.16 µM,258 nM
same,IC50,second compound 10 µM,233 nM
same,"viability, T/C",[1],90.2%
same,"viability, T/C",[2],91.5%
same,"viability, T/C",[3],102%
same,"viability, T/C",[4],53.4%
same,"viability, T/C",[5],34.8%
same,"viability, T/C",[6],5.25%
same,"viability, T/C",[7],91.6%
same,"viability, T/C",[8],92.9%
same,"viability, T/C",[9],89.3%
same,"viability, T/C",[10],71.1%
same,"viability, T/C",[11],39.9%
same,"viability, T/C",[12],5.58%
same,"viability, T/C",[13],98.3%
same,"viability, T/C",[14],107%
same,"viability, T/C",[15],93.8%
same,"viability, T/C",[16],84.9%
same,"viability, T/C",[17],42.6%
same,"viability, T/C",[18],7.22%
same,"viability, T/C",[19],111%
same,"viability, T/C",[20],98.2%
same,"viability, T/C",[21],101%
same,"viability, T/C",[22],82.4%
same,"viability, T/C",[23],38.7%
same,"viability, T/C",[24],6.42%
same,"viability, T/C",[25],104%
same,"viability, T/C",[26],102%
same,"viability, T/C",[27],99.6%
same,"viability, T/C",[28],74.9%
same,"viability, T/C",[29],45.3%
same,"viability, T/C",[30],6.52%
same,"viability, T/C",[31],118%
same,"viability, T/C",[32],88.9%
same,"viability, T/C",[33],86.2%
same,"viability, T/C",[34],79.4%
same,"viability, T/C",[35],39.5%
same,"viability, T/C",[36],5.63%
CC[C@@]1(O)C(=O)OCc2c1cc1n(c2=O)Cc2cc3c(CN(C)C)c(O)ccc3nc2-1 + Cc1cccc(N(C)C(=O)C2C(O)CCN2c2nc(C)cc(C(F)(F)F)c2C#N)c1,IC50,second compound 0.0316 µM,6.93 nM
same,IC50,second compound 0.1 µM,7.54 nM
same,IC50,second compound 0.316 µM,8.14 nM
same,IC50,second compound 1 µM,6.95 nM
same,IC50,second compound 3.16 µM,7.21 nM
same,IC50,second compound 10 µM,6.98 nM
same,"viability, T/C","second compound 0.0316 µM, first compound 0.000316 µM",109%
same,"viability, T/C","second compound 0.0316 µM, first compound 0.001 µM",121%
same,"viability, T/C",[1],78.5%
same,"viability, T/C",[2],38%
same,"viability, T/C",[3],22.6%
same,"viability, T/C",[4],18.1%
same,"viability, T/C","second compound 0.1 µM, first compound 0.000316 µM",87.9%
same,"viability, T/C","second compound 0.1 µM, first compound 0.001 µM",118%
same,"viability, T/C",[7],72.8%
same,"viability, T/C",[8],43.6%
same,"viability, T/C",[9],23.5%
same,"viability, T/C",[10],17.4%
same,"viability, T/C","second compound 0.316 µM, first compound 0.000316 µM",103%
same,"viability, T/C","second compound 0.316 µM, first compound 0.001 µM",96.8%
same,"viability, T/C",[13],61.6%
same,"viability, T/C",[14],54.1%
same,"viability, T/C",[15],20%
same,"viability, T/C",[16],15.3%
same,"viability, T/C","second compound 1 µM, first compound 0.000316 µM",124%
same,"viability, T/C","second compound 1 µM, first compound 0.001 µM",84.9%
same,"viability, T/C",[19],76.2%
same,"viability, T/C",[20],38.9%
same,"viability, T/C",[21],22%
same,"viability, T/C",[22],17.2%
same,"viability, T/C","second compound 3.16 µM, first compound 0.000316 µM",89.7%
same,"viability, T/C","second compound 3.16 µM, first compound 0.001 µM",123%
same,"viability, T/C",[25],83.2%
same,"viability, T/C",[26],37.2%
same,"viability, T/C",[27],21.4%
same,"viability, T/C",[28],16.8%
same,"viability, T/C","second compound 10 µM, first compound 0.000316 µM",89.5%
same,"viability, T/C","second compound 10 µM, first compound 0.001 µM",113%
same,"viability, T/C",[31],82.7%
same,"viability, T/C",[32],34.8%
same,"viability, T/C",[33],22.2%
same,"viability, T/C",[34],14.6%
CCc1c2c(nc3ccc(O)cc13)-c1cc3c(c(=O)n1C2)COC(=O)[C@]3(O)CC + Cc1cccc(N(C)C(=O)C2C(O)CCN2c2nc(C)cc(C(F)(F)F)c2C#N)c1,IC50,second compound 0.0316 µM,< 3.16 nM
same,IC50,second compound 0.1 µM,< 3.16 nM
same,IC50,second compound 0.316 µM,< 3.16 nM
same,IC50,second compound 1 µM,< 3.16 nM
same,IC50,second compound 3.16 µM,< 3.16 nM
same,IC50,second compound 10 µM,< 3.16 nM
same,"viability, T/C",[1],25.3%
same,"viability, T/C",[2],19%
same,"viability, T/C",[3],13.3%
same,"viability, T/C",[4],7.02%
same,"viability, T/C",[5],5.47%
same,"viability, T/C",[6],2.88%
same,"viability, T/C",[7],24.9%
same,"viability, T/C",[8],16.9%
same,"viability, T/C",[9],11.1%
same,"viability, T/C",[10],8.13%
same,"viability, T/C",[11],5.27%
same,"viability, T/C",[12],3.6%
same,"viability, T/C",[13],16.9%
same,"viability, T/C",[14],15.3%
same,"viability, T/C",[15],11.9%
same,"viability, T/C",[16],9.03%
same,"viability, T/C",[17],5.25%
same,"viability, T/C",[18],3.06%
same,"viability, T/C",[19],24.7%
same,"viability, T/C",[20],18.8%
same,"viability, T/C",[21],11.3%
same,"viability, T/C",[22],5.74%
same,"viability, T/C",[23],5.46%
same,"viability, T/C",[24],3.33%
same,"viability, T/C",[25],19.6%
same,"viability, T/C",[26],15.9%
same,"viability, T/C",[27],12.5%
same,"viability, T/C",[28],8.19%
same,"viability, T/C",[29],4.73%
same,"viability, T/C",[30],2.56%
same,"viability, T/C",[31],20.8%
same,"viability, T/C",[32],17%
same,"viability, T/C",[33],11.3%
same,"viability, T/C",[34],7.07%
same,"viability, T/C",[35],5.05%
same,"viability, T/C",[36],2.83%
